# From patent US20040006236A1, “Diaminopropionic acid derivatives” (priority 1999, published 2004)
# Counter-ions that a name gives are not always drawn. Like-named read-outs stand apart in the source and are kept apart here.
# Assays:
# [1] = molecular target: T1, LFA-1 binding to immobilized ICAM-1 (Homo sapiens, UniProt P05107+P20701); assay: LFA-1/ICAM-1 protein-protein assay (solid-phase ELISA)
# T1 construct: made in house; host or cells: transfected 293 cells (LFA-1)
# Method in brief: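 Human 5dICAM-Ig (ICAM-1 extracellular domain–IgG Fc) coated on plates; membrane-bound LFA-1 from transfected 293 cells (280 ng/mL) added with compound in Mn2+-containing HEPES buffer pH 7.2, 2 h at 37° C. Bound LFA-1 detected via anti-β2 antibody and HRP/TMB at 450 nm; IC50s determined.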
# [2] = tested on: cell-surface Mac-1 adhesion to immobilized fibrinogen (HL-60 cells); assay: Mac-1/Fibrinogen cell-based screening assay; set-up: species or system human; conditions: Homo sapiens, HL-60, HL-60 cells; read-out: Mac-1/Fgn Cell based Assay IC50
# Procedure: Cellular Mac-1/Fibrinogen antagonist activity, defined as the ability to inhibit cell-surface Mac-1 adhesion to immobilized fibrinogen, was quantitated by a cell based assay. Human fibrinogen was coated onto 96 well microtiter plates (1 μg in 100 μL TBS) overnight at 4° C. The plates were then blocked with 150 μL of 10% polyvinyl pyrrolidone (PVP) in TBS for 1 h at 37° C. Plates were washed 3 times (150 μL each) with TBS. […] A ten-fold excess of volume of the same buffer was added and cells were centrifuged. The medium was decanted and cells were resuspended at a concentration of 2×10^6 cells/mL in RPMI/0.05% BSA/0.2 mM MnCl2. Stock solutions (10 mM in DMSO) of test compounds were diluted to 2.5 mM with DMSO. […] Each sample was further diluted 50-fold with RPMI/0.05% BSA/0.2 mM MnCl2. Equal volumes of labeled cells were then added to assay tubes containing diluted compounds. […] Cells were incubated for 10 min at 37° C. with gentle shaking, then dispensed (100 μL per well) onto fibrinogen coated plates and incubated for 30 min at 37° C./5% CO2. Unbound cells were gently washed with TBS two times.
# [3] = read-out: LFA-1/ICAM-1 Protein-Protein Assay IC50
# [4] = LFA-1/ICAM-1 Protein-Protein Assay IC50
# T1 sequence (P20701 26-1170): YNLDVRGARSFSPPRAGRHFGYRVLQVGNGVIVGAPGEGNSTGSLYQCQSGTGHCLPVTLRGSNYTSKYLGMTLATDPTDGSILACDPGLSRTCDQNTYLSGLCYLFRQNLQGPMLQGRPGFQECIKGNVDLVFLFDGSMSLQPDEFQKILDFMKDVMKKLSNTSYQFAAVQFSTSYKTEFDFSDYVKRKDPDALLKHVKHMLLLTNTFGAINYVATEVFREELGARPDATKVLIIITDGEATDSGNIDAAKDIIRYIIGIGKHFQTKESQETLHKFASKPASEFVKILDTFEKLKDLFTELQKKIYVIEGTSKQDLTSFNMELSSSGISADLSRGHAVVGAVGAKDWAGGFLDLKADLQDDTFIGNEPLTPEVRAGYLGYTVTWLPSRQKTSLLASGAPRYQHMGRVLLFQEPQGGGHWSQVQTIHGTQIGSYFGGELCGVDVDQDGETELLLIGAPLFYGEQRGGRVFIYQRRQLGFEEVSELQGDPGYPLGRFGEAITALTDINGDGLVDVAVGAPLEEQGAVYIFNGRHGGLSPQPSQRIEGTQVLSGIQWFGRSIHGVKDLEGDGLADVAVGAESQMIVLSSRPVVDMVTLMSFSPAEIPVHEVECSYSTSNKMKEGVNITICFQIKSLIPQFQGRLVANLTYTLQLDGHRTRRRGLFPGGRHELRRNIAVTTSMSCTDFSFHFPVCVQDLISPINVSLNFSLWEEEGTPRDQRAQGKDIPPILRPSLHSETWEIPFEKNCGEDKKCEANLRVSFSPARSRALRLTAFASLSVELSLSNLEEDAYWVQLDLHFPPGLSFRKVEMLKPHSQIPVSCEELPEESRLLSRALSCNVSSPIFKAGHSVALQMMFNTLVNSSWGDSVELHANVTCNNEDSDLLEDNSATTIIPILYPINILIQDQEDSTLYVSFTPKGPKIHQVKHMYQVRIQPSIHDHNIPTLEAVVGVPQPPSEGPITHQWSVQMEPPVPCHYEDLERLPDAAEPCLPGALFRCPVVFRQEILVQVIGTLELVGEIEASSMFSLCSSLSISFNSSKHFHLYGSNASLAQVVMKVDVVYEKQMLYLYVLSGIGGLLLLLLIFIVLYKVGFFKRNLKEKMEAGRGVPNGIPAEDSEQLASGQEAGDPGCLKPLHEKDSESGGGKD
# T1 sequence (P05107 23-769): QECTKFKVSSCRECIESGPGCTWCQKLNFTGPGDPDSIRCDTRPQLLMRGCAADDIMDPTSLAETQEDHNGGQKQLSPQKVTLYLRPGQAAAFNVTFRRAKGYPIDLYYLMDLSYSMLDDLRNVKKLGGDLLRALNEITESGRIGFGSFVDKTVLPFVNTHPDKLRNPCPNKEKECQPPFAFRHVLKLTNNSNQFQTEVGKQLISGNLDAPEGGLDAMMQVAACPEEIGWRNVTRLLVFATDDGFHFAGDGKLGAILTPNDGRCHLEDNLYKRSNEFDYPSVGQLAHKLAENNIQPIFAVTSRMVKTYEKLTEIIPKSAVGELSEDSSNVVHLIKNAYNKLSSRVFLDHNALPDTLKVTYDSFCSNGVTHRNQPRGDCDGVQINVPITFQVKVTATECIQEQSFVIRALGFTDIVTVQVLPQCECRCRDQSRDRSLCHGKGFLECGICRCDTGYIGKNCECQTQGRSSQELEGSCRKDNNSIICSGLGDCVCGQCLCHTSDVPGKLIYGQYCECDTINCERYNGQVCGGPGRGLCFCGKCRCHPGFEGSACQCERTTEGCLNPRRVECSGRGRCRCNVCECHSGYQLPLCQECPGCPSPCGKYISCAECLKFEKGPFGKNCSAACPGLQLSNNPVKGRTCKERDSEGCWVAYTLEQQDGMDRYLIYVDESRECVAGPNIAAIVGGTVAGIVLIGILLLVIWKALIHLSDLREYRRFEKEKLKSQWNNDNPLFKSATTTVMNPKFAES
Structure (SMILES),"IC50 [1, 3] [nM]",IC50 [2] [nM],"IC50 [1, 4] [nM]"
O=C(Cc1ccc([N+](=O)[O-])cc1)NC[C@H](NC(=O)c1ccc(C(=O)NCc2cccc(O)c2)cc1Cl)C(=O)O [Example 81],4,–,–
O=C(Cc1ccc([N+](=O)[O-])cc1[N+](=O)[O-])NC[C@H](NC(=O)c1ccc(C(=O)NCc2cccc(O)c2)cc1Cl)C(=O)O [Example 83],–,–,2.3
O=C(Cc1cccs1)NC[C@H](NC(=O)c1ccc(C(=O)NCc2cccc(O)c2)cc1Cl)C(=O)O [Example 84],1,–,–
O=C(Cc1ccc2ccccc2c1)NC[C@H](NC(=O)c1ccc(C(=O)NCc2cccc(O)c2)cc1Cl)C(=O)O [Example 87],4.8,–,–
O=C(C[n+]1csc2ccccc21)NC[C@H](NC(=O)c1ccc(C(=O)NCc2cccc(O)c2)cc1Cl)C(=O)O [Example 89],5.9,–,–
O=C(CSc1ccncc1)NC[C@H](NC(=O)c1ccc(C(=O)NCc2cccc(O)c2)cc1Cl)C(=O)O [Example 90],2.4,711,–
O=C(CSc1ncccn1)NC[C@H](NC(=O)c1ccc(C(=O)NCc2cccc(O)c2)cc1Cl)C(=O)O [Example 91],5,–,–
O=C(NCc1cccc(O)c1)c1ccc(C(=O)N[C@@H](CNC(=O)C23CC4CC(CC(C4)C2)C3)C(=O)O)c(Cl)c1 [Example 93],0.5,–,–
O=C(CCc1ccccc1)NC[C@H](NC(=O)c1ccc(C(=O)NCc2cccc(O)c2)cc1Cl)C(=O)O [Example 94],1.5,–,–
O=C(NCc1cccc(O)c1)c1ccc(C(=O)N[C@@H](CNC(=O)c2cc([N+](=O)[O-])cc([N+](=O)[O-])c2)C(=O)O)c(Cl)c1 [Example 129],–,–,4.2
O=C(NCc1cccc(O)c1)c1ccc(C(=O)N[C@@H](CNC(=O)c2cnccn2)C(=O)O)c(Cl)c1 [Example 170],1.9,–,–
O=C(NCc1cccc(O)c1)c1ccc(C(=O)N[C@@H](CNC(=O)c2cc3ccccc3s2)C(=O)O)c(Cl)c1 [Example 175],2.6,345,–
O=C(NCc1cccc(O)c1)c1ccc(C(=O)N[C@@H](CNC(=O)c2cnc3ccccc3c2)C(=O)O)c(Cl)c1 [Example 183],12,–,–
O=C(NCc1cccc(O)c1)c1ccc(C(=O)N[C@@H](CNC(=O)c2ccc3c(c2)S(=O)(=O)c2ccccc2C3=O)C(=O)O)c(Cl)c1 [Example 192],1.3,–,–
CC(C)C(=O)NC[C@H](NC(=O)c1ccc(C(=O)NCc2cccc(O)c2)cc1Cl)C(=O)O [Example 194],1.9,–,–
CSCC[C@H](N)C(=O)NC[C@H](NC(=O)c1ccc(C(=O)NCc2cccc(O)c2)cc1Cl)C(=O)O [Example 197],4.9,–,–
NCCCC[C@H](N)C(=O)NC[C@H](NC(=O)c1ccc(C(=O)NCc2cccc(O)c2)cc1Cl)C(=O)O [Example 198],12,–,–
N[C@@H](Cc1ccccc1)C(=O)NC[C@H](NC(=O)c1ccc(C(=O)NCc2cccc(O)c2)cc1Cl)C(=O)O [Example 199],7.4,–,–
O=C(NC[C@H](NC(=O)c1c(Cl)cccc1Cl)C(=O)O)c1ccccc1 [Example 219],13,–,–
O=C(NC[C@H](NC(=O)c1c(Cl)cccc1Cl)C(=O)O)c1ccc(Br)s1 [Example 223],6.4,–,–
O=C(NC[C@H](NC(=O)c1c(F)cccc1Cl)C(=O)O)c1ccc(Br)s1 [Example 224],24,–,–
O=C(NC[C@H](NC(=O)c1c(F)cccc1Cl)C(=O)O)c1ccc2[nH]nnc2c1 [Example 226],47,–,–
"COc1c(C(=O)NC[C@H](NC(=O)c2ccc(C(=O)NCc3cccc(O)c3)cc2Cl)C(=O)O)csc1Cl [Example 258, N-[2-chloro-4-[[[(3-hydroxyphenyl)methyl]amino]carbonyl]benzoyl]-3-(5-chloro-4-methoxythiophene-3-carbonyl)amino-L-alanine]",2.2,–,–
N[C@H]1CC[C@@H](C(=O)NC[C@H](NC(=O)c2ccc(C(=O)NCc3cccc(O)c3)cc2Cl)C(=O)O)CC1 [Example 264],4.6,–,–
Nc1cccn(CC(=O)NC[C@H](NC(=O)c2ccc(C(=O)NCc3cccc(O)c3)cc2Cl)C(=O)O)c1=O [Example 266],4.6,–,–
O=C(O)CCCC(=O)NC[C@H](NC(=O)c1ccc(C(=O)NCc2cccc(O)c2)cc1Cl)C(=O)O [Example 298],4.8,–,–
"O=C(CCc1cccc(O)c1)c1ccc(C(=O)N[C@@H](CNC(=O)c2cccs2)C(=O)O)c(Cl)c1 [Example 319, N-[2-chloro-4-[1-oxo-3-(3-hydroxyphenyl)propyl]benzoyl]-3-(thiophene-2-carbonyl)amino-L-alanine]",1.4,–,–
C[C@@H](NC(=O)c1ccc(C(=O)N[C@@H](CNC(=O)c2cccs2)C(=O)O)c(Br)c1)c1cccc2ccccc12 [Example 332],4.8,–,–
"Nc1cccc(CNC(=O)c2ccc(C(=O)N[C@@H](CNC(=O)c3cccs3)C(=O)O)c(Br)c2)c1 [Example 334, N-[4-[[[(3-aminophenyl)methyl]amino]carbonyl]-2-bromobenzoyl]-3-(thiophene-2-carbonyl)amino-L-alanine]",3,–,–

# Further compounds by falling IC50 [1, 3], results first:
"IC50 [1, 3] [nM]",IC50 [2] [nM],Structure (SMILES),"IC50 [1, 4] [nM]"
12,–,O=C(NCc1cccc(O)c1)c1ccc(C(=O)N[C@@H](CNC(=O)c2cc(=O)c3ccccc3o2)C(=O)O)c(Cl)c1 [Example 187],–
8.5,–,O=C(NCc1cccc2[nH]cnc12)c1ccc(C(=O)N[C@@H](CNC(=O)c2cccs2)C(=O)O)c(Cl)c1 [Example 322],–
7.6,–,N[C@@H](Cc1c[nH]c2ccccc12)C(=O)NC[C@H](NC(=O)c1ccc(C(=O)NCc2cccc(O)c2)cc1Cl)C(=O)O [Example 201],–
6,–,COc1ccc(CC(=O)NC[C@H](NC(=O)c2ccc(C(=O)NCc3cccc(O)c3)cc2Cl)C(=O)O)cc1 [Example 80],–
4.3,–,O=C(Cc1cccc(C(F)(F)F)c1)NC[C@H](NC(=O)c1ccc(C(=O)NCc2cccc(O)c2)cc1Cl)C(=O)O [Example 82],–
4.2,–,NC1(C(=O)NC[C@H](NC(=O)c2ccc(C(=O)NCc3cccc(O)c3)cc2Cl)C(=O)O)CCCC1 [Example 263],–
3.5,–,Cc1ccc(C(=O)NC[C@H](NC(=O)c2ccc(C(=O)NCc3cccc4[nH]ccc34)cc2Cl)C(=O)O)s1 [Example 317],–
3.3,–,O=C(NCc1cccc(O)c1)c1ccc(C(=O)N[C@@H](CNC(=O)C(c2ccccc2)c2ccccc2)C(=O)O)c(Cl)c1 [Example 86],–
2.9,–,O=C(Cc1ccccc1)NC[C@H](NC(=O)c1ccc(C(=O)NCc2cccc(O)c2)cc1Cl)C(=O)O [Example 79],–
2.9,–,NC(=O)C[C@H](N)C(=O)NC[C@H](NC(=O)c1ccc(C(=O)NCc2cccc(O)c2)cc1Cl)C(=O)O [Example 200],–
2.9,–,Cc1nnsc1C(=O)NC[C@H](NC(=O)c1ccc(C(=O)NCc2cccc(O)c2)cc1Cl)C(=O)O [Example 255],–
2.7,–,O=C(NCc1cccc2[nH]ccc12)c1ccc(C(=O)N[C@@H](CNC(=O)c2cccs2)C(=O)O)c(Br)c1 [Example 329],–
2.6,–,O=C(NC[C@H](NC(=O)c1ccc(-n2nnnc2NCc2cccc(O)c2)cc1Cl)C(=O)O)c1cccs1 [Example 321],–
2.1,–,CC(C)(C)C(=O)NC[C@H](NC(=O)c1ccc(C(=O)NCc2cccc(O)c2)cc1Cl)C(=O)O [Example 92],–
2,–,CC(C)CC(=O)NC[C@H](NC(=O)c1ccc(C(=O)NCc2cccc(O)c2)cc1Cl)C(=O)O [Example 195],–
1.9,–,"O=C(NCc1cccc2c1CCN2)c1ccc(C(=O)N[C@@H](CNC(=O)c2cccs2)C(=O)O)c(Cl)c1 [Example 318, 3-(thiophene-2-carbonyl)amino-N-[2-chloro-4-[[(2,3-dihydro-1H-indol-4-ylmethyl)amino]carbonyl]benzoyl]-L-alanine]",–
1.8,–,O=C(CC1c2ccccc2-c2ccccc21)NC[C@H](NC(=O)c1ccc(C(=O)NCc2cccc(O)c2)cc1Cl)C(=O)O [Example 88],–
1.8,–,N[C@@H](CCC(=O)NC[C@H](NC(=O)c1ccc(C(=O)NCc2cccc(O)c2)cc1Cl)C(=O)O)C(=O)O [Example 202],–
1.3,–,O=C(NCc1cccc2[nH]ccc12)c1ccc(C(=O)N[C@@H](CNC(=O)c2ccoc2)C(=O)O)c(Cl)c1 [Example 316],–
1,–,O=C(CC1CCCCC1)NC[C@H](NC(=O)c1ccc(C(=O)NCc2cccc(O)c2)cc1Cl)C(=O)O [Example 78],–
1,157,O=C(NCc1cccc(O)c1)c1ccc(C(=O)N[C@@H](CNC(=O)c2ccc3ncsc3c2)C(=O)O)c(Cl)c1 [Example 177],–
1,–,"O=C(NCc1cccc(O)c1)c1ccc(C(=O)N[C@@H](CNC(=O)c2cccs2)C(=O)O)c(Cl)c1 [Example 305, N-[2-chloro-4-[[[(3-hydroxyphenyl)methyl]amino]carbonyl]benzoyl]-3-(thiophene-2-carbonyl)amino-L-alanine, sodium salt]",–
0.8,–,O=C(O)c1cccc(C(=O)NC[C@H](NC(=O)c2ccc(C(=O)NCc3cccc(O)c3)cc2Cl)C(=O)O)c1 [Example 297],–
0.7,–,CC(=O)NC[C@H](NC(=O)c1ccc(C(=O)NCc2cccc(O)c2)cc1Cl)C(=O)O [Example 193],–
